Source: PubChem BioAssay AID2124 (Sanford-Burnham Center for Chemical Genomics, 2009)
Records with an inconclusive call do not appear. Activity calls are given as the source filed them. How the calls were made is not given here; tested in MIN6 cells.

Test: cell-permeable autofluorescent compounds in GFP channel, dose response, artefact control, imaging, high-content imaging (AID 2124);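 further: cells exposed to compound for 48 hours before fixing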
Settings: cells, GFP-channel autofluorescence, high-content imaging, at 10 µM; for z-score: stronger effect = higher value

Cn1c(=O)c(N)c2c3c(c(Br)ccc31)C(=O)c1ccccc1-2
z-score: 0.12 | cell count: 3210 cells

COc1cc(S(=O)(=O)N2CCOCC2)ccc1NC(=O)COC(=O)C12CC3CC(CC(C3)C1)C2
z-score: -0.39 (inactive) | cell count: 3410 cells

COc1ccc(CC(=O)N2CCN(C)CC2)cc1
z-score: -0.33 (inactive) | cell count: 3120 cells

COc1cccc(NC(=O)Cn2c(-c3cncs3)nc3ccccc32)c1
z-score: -0.39 (inactive) | cell count: 3160 cells

CCCNC(=O)N1CCC(C(=O)c2ccc(Cl)cc2)CC1
z-score: -0.38 (inactive) | cell count: 2970 cells

C=CCn1c(-c2oc3nc(-c4ccccc4)cc(-c4ccccc4)c3c2N)n[nH]c1=S
z-score: -0.33 (inactive) | cell count: 2820 cells

CCn1c(Cn2nnc(-c3ccccc3)n2)nnc1SCC(=O)Nc1ccc(C(C)=O)cc1
z-score: -0.33 (inactive) | cell count: 3180 cells

Cc1ccc(-c2cc(-c3ccco3)c3c(N)c(C(=O)NN)oc3n2)cc1
z-score: -0.32 (inactive) | cell count: 2700 cells

Cc1ccccc1-n1ncc2c(SCC(=O)NCc3cccs3)ncnc21
z-score: -0.38 (inactive) | cell count: 2670 cells

COC(=O)c1sccc1NC(=O)c1cc(OC)c(OC)c(OC)c1
z-score: -0.39 (inactive) | cell count: 3020 cells

Cc1ccc(S(=O)(=O)Nc2ccc(=O)n(Cc3ccc(Cl)c(Cl)c3)c2)cc1
z-score: -0.33 (inactive) | cell count: 3230 cells

CC1CCN(S(=O)(=O)c2ccc3c(c2)c(=O)c(C(=O)N2CCCCC2)cn3C)CC1
z-score: -0.33 (inactive) | cell count: 2850 cells

COCCNC(=S)N/N=C(\C)c1ccc2cc(OC)ccc2c1
z-score: -0.33 (inactive) | cell count: 2790 cells

Cc1[nH]c2ccccc2c1/C=N/Nc1ccc([N+](=O)[O-])cc1S(=O)(=O)Nc1ccc(Cl)cc1
z-score: 0.35 | cell count: 2050 cells

CCCCCn1nc(-c2ccccc2)c2nc3ccccc3nc21
z-score: 1.27 | cell count: 3200 cells

O=c1[nH]c(/C=C/c2ccccc2OC(F)F)nc2c1cnn2-c1ccccc1
z-score: -0.38 (inactive) | cell count: 2240 cells

C1=C(c2ccccc2)Nc2nnnn2C1
z-score: -0.26 (inactive) | cell count: 3170 cells

COc1ccc(Cl)cc1NC(=O)c1c(-c2ccccc2)noc1C
z-score: -0.39 (inactive) | cell count: 3300 cells

CC(C)=NNc1nc2c(c(=O)n(C)c(=O)n2C)n1CCc1ccccc1
z-score: -0.39 (inactive) | cell count: 3610 cells

O=C(CCl)Nc1cccc2ncccc12
z-score: -0.38 (inactive) | cell count: 2060 cells

COC(=O)c1c[nH]n2c(=O)c(Cc3ccc(F)cc3Cl)c(C)nc12
z-score: -0.33 (inactive) | cell count: 3100 cells

CCN(CC)c1ccc2cc(-c3nc4ccccc4[nH]3)c(=O)oc2c1
z-score: 5.37 | cell count: 1680 cells

O=C(OCC(=O)N1CCN(C(=O)c2ccco2)CC1)c1ccccc1OCc1ccccc1
z-score: -0.38 (inactive) | cell count: 2850 cells

COc1cccc(/C=N/NC(=O)CCn2cnc3ccccc32)c1
z-score: -0.33 (inactive) | cell count: 3250 cells

C=CCn1c(SCCOc2ccc(OC)cc2)nnc1C(C)NC(=O)Cc1ccc(OC)cc1 (stereo not given)
z-score: -0.33 (inactive) | cell count: 3140 cells

Nc1c(C(=O)C2CC2)sc2nc(-c3cccs3)cc(C(F)(F)F)c12
z-score: 0.95 | cell count: 2750 cells

O=S(=O)([O-])CCC[n+]1c(/C=C\Nc2ccccc2)oc2ccc(-c3ccccc3)cc21
z-score: 1.34 | cell count: 3120 cells

O=C1CN(C(=O)COc2ncnc3ccccc23)c2ccccc2N1
z-score: -0.38 (inactive) | cell count: 3020 cells

CN(C)C(=O)C12CCC(C)(c3nc4ccccc4nc31)C2(C)C (stereo not given)
z-score: -0.38 (inactive) | cell count: 3350 cells

CC(C)OC(=O)CN1C(=O)S/C(=C/c2ccc(N3CCCCC3)o2)C1=O
z-score: 0.56 | cell count: 2120 cells

CCOc1ccc(NC(=O)Cn2c(=O)oc3ccccc32)cc1
z-score: -0.25 (inactive) | cell count: 3070 cells

Nc1c(C(=O)c2ccc(Cl)cc2)sc2nsc(SCCN3CCOCC3)c12
z-score: 0.31 | cell count: 2540 cells

CC1=NNC(=O)C1CCC(=O)N/N=C/c1ccc(C)cc1 (stereo not given)
z-score: -0.39 (inactive) | cell count: 3320 cells

COc1cccc(C(=O)Nc2ccccc2C(=O)N2CCCC2)c1
z-score: -0.39 (inactive) | cell count: 3120 cells

COC(=O)c1cc2c(-c3ccccc3)cc3ccccn3c-2c1C(=O)OC
z-score: -0.23 (inactive) | cell count: 2880 cells

S=c1[nH]nc(-c2ccccc2)n1CC1CCCO1 (stereo not given)
z-score: -0.33 (inactive) | cell count: 3250 cells

O=C(NCc1cn2ccccc2n1)c1ccco1
z-score: -0.33 (inactive) | cell count: 3100 cells

Cc1ccc(Nc2nc(Cl)c(C=O)s2)cc1Cl
z-score: -0.27 (inactive) | cell count: 2840 cells

CCOC(=O)c1nnn(-c2nonc2N)c1-c1ccc(OCC)cc1
z-score: -0.39 (inactive) | cell count: 3520 cells

CS(=O)(=O)ON=C1CCN(S(=O)(=O)c2ccccc2)CC1
z-score: -0.33 (inactive) | cell count: 3400 cells
